Experimental data taken from patent US11174268B2, “Benzenesulfonamide compouds and their use as therapeutic agents” (Xenon Pharmaceuticals Inc., priority 2016, dated 2021).
Structures can show the parent of a compound that is named as a salt. Where two headings read alike, the source gives them in different places.

Columns and labels:
[1] = target: T1, NaV1.6 (Homo sapiens (Human), UniProt Q9UQD0); assay: Sodium Influx Assay (Flux), NaV1.6; assay type: cell-based; details: Trex HEK293 cells, ANG2 dye, inactivated state;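 also: Tetracycline-induced cells, compounds applied for one hour at room temperature with modulators holding channels open, IC50 from percent inhibition of sodium influx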
[2] = target: T1, NaV1.6; assay: Electrophysiological Assay (EP), patch voltage clamp, NaV1.6; assay type: cell-based; details: HEK-293 cells, whole-cell patch clamp;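 also: sodium current recorded at ambient temperature, channels held inactivated then briefly repolarized to −150 mV for 20 ms before a test pulse, control currents in 0.5% DMSO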
[3] = target: NaV1.1 (Homo sapiens (Human), UniProt P35498); assay: Sodium Influx Assay (Flux), NaV1.1; assay type: cell-based; details: Trex HEK293 cells, ANG2 dye, inactivated state;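 also: channels co-expressed with human β1 subunit and held open by modulators, cells exposed to compounds for one hour at room temperature, IC50 from percent inhibition of influx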
[4] = target: NaV1.5 (Homo sapiens (Human), UniProt Q14524); assay: Sodium Influx Assay (Flux), NaV1.5
[5] = read-out: Flux NaV1.5 IC50, Trex HEK293 cells, ANG2 dye, inactivated state

T1 sequence (Q9UQD0 whole entry): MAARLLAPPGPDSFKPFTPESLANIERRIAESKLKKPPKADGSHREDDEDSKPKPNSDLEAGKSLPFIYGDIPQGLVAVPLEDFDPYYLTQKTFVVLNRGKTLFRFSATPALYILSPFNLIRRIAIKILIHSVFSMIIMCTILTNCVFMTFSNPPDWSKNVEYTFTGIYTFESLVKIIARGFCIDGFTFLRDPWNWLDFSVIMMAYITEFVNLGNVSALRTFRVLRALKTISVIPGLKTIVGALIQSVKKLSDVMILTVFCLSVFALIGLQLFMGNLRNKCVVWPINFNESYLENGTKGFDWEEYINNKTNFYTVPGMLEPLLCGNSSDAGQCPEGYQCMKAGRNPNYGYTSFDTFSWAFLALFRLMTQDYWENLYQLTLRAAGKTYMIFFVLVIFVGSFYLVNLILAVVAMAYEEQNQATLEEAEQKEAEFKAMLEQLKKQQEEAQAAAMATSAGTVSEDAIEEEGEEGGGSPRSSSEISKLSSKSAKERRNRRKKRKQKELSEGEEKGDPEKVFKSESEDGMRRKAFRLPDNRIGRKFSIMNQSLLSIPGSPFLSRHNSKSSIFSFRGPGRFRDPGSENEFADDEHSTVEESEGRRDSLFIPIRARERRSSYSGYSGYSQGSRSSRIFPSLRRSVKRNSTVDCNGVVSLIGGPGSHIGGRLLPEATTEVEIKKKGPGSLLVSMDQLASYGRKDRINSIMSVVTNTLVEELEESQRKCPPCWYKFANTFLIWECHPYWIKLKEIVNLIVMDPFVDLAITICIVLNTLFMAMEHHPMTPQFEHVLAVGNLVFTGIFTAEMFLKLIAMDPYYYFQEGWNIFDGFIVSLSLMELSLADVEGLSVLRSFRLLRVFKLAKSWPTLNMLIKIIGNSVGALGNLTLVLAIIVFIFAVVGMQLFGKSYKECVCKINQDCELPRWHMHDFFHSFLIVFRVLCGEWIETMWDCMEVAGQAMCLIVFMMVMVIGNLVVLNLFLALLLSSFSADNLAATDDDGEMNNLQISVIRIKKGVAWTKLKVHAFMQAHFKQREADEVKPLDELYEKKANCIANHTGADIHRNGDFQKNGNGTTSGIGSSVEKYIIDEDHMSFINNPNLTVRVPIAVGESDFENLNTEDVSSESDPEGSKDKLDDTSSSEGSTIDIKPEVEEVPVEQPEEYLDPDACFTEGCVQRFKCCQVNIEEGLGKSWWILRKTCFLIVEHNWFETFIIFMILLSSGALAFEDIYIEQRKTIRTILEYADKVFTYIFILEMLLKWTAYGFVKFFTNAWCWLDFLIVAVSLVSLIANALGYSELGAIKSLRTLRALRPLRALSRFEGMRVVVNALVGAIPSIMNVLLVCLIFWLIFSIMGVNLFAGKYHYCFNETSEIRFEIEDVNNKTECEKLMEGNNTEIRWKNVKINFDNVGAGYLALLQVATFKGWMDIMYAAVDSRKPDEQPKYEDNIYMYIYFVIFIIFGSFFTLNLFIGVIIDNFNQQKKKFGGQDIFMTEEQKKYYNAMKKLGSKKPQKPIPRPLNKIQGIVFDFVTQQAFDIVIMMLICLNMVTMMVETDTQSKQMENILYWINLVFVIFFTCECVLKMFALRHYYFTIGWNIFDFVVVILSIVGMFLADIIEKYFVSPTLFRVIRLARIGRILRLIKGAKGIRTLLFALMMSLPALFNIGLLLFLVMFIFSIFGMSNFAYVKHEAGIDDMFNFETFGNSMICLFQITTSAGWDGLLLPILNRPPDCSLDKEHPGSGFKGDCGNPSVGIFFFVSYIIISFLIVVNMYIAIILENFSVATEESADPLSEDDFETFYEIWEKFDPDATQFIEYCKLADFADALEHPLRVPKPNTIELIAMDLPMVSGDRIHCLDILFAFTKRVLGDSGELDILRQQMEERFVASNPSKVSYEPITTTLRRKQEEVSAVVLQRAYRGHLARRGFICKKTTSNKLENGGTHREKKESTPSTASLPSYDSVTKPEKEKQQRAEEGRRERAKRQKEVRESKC
NaV1.5, sequence (Q14524 other isoform, or with tags, fused parts or gaps): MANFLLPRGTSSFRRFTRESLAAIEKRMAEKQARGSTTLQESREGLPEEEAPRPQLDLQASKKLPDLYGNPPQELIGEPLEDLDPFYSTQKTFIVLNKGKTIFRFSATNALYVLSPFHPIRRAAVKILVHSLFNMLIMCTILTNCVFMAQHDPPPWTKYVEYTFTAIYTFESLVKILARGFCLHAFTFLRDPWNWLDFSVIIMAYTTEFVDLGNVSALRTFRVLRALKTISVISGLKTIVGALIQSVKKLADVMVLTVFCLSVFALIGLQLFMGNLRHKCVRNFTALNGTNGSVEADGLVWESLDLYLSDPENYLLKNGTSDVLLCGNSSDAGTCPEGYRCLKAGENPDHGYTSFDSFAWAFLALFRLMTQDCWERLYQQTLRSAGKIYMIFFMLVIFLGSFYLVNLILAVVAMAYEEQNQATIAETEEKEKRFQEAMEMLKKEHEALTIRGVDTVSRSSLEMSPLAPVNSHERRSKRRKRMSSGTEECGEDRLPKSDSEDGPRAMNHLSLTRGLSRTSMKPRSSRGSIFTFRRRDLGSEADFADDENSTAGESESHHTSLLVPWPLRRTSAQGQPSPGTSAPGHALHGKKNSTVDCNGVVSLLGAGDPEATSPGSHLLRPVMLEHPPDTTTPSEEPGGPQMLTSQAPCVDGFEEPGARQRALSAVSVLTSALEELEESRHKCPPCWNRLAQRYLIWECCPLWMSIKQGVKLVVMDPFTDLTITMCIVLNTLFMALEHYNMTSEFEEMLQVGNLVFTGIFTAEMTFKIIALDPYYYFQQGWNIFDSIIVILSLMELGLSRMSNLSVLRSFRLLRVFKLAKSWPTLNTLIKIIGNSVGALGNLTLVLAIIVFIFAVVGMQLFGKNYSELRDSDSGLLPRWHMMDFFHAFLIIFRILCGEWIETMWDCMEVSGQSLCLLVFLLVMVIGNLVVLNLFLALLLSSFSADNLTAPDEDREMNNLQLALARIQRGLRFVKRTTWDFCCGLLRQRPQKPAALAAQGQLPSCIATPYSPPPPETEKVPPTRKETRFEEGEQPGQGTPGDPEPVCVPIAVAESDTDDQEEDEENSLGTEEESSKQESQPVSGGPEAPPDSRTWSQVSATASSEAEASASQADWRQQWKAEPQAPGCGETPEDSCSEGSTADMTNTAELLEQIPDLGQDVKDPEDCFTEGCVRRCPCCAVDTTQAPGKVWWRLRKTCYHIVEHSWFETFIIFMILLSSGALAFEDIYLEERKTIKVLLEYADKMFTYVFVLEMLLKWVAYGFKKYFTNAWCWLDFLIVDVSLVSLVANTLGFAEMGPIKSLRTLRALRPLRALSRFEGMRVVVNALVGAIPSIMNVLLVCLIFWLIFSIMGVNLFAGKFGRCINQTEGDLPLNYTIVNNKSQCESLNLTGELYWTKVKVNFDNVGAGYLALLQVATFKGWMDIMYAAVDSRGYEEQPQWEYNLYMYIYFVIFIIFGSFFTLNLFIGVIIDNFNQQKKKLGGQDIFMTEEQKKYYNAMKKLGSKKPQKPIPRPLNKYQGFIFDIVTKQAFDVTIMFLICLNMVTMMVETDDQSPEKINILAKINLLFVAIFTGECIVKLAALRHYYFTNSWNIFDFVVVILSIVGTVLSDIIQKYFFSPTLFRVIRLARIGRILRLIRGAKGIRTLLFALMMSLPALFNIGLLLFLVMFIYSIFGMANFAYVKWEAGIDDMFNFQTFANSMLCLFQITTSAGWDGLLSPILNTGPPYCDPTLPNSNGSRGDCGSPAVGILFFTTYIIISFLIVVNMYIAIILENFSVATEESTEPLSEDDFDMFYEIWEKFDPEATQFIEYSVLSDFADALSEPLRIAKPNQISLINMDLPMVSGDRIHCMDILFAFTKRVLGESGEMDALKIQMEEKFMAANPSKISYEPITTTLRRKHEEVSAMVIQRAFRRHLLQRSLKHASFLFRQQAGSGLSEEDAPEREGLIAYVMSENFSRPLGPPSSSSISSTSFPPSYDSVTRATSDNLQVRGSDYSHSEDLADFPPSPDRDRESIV

Compound	IC50 [1]	IC50 [2]	IC50 [3]	IC50 [4, 5]	IC50 [4]
CCC(Nc1cc(F)c(S(=O)(=O)Nc2cccc(F)n2)cc1Cl)c1ccccc1 (centres unmarked) [Example 86, 5-chloro-2-fluoro-N-(6-fluoropyridin-2-yl)-4-((1-phenylpropyl)amino)benzenesulfonamide]	4.06 µM	0.558 µM	16.6 µM	12.7 µM	–
O=S(=O)(Nc1cscn1)c1c(F)cc(NCc2c(F)ccc(F)c2CN2CCC2)c(F)c1F [Example 215, 4-((2-(azetidin-1-ylmethyl)-3,6-difluorobenzyl)amino)-2,3,6-trifluoro-N-(thiazol-4-yl)benzenesulfonamide 2,2,2-trifluoroacetate]	0.021 µM	0.003 µM	10.3 µM	21.5 µM	–
CCC(Nc1cc(F)c(S(=O)(=O)Nc2ncns2)cc1F)c1ccccc1 (centres unmarked) [Example 85, 2,5-difluoro-4-((1-phenylpropyl)amino)-N-(1,2,4-thiadiazol-5-yl)benzenesulfonamide]	0.107 µM	0.078 µM	0.516 µM	30 µM	–
O=S(=O)(Nc1ncns1)c1c(F)cc(NCc2ccccc2CN2CCC2)c(Cl)c1F [Example 327, 4-((2-(azetidin-1-ylmethyl)benzyl)amino)-3-chloro-2,6-difluoro-N-(1,2,4-thiadiazol-5-yl)benzenesulfonamide formate]	0.003 µM	0.001 µM	4.44 µM	30 µM	–
O=S(=O)(Nc1cccc(F)n1)c1c(F)cc(NCc2c(F)cccc2CN2CCC2)cc1F [Example 322, 4-((2-(azetidin-1-ylmethyl)-6-fluorobenzyl)amino)-2,6-difluoro-N-(6-fluoropyridin-2-yl)benzenesulfonamide formate]	0.114 µM	0.047 µM	7.75 µM	30 µM	–
O=S(=O)(Nc1ccccn1)c1c(F)cc(NCc2c(F)cccc2CN2CCC2)cc1F [Example 328, 4-((2-(azetidin-1-ylmethyl)-6-fluorobenzyl)amino)-2,6-difluoro-N-(pyridin-2-yl)benzenesulfonamide]	3.82 µM	1.04 µM	30 µM	30 µM	–
COC1(C)CN(Cc2cccc(F)c2CNc2cc(F)c(S(=O)(=O)Nc3cscn3)c(F)c2)C1 [Example 172, 2,6-difluoro-4-((2-fluoro-6-((3-methoxy-3-methylazetidin-1-yl)methyl)benzyl)amino)-N-(thiazol-4-yl)benzenesulfonamide formate]	0.078 µM	0.023 µM	25.8 µM	30 µM	–
O=S(=O)(Nc1ccon1)c1c(F)cc(NCc2c(F)cccc2CN2CCC2)cc1F [Example 204, 4-((2-(azetidin-1-ylmethyl)-6-fluorobenzyl)amino)-2,6-difluoro-N-(isoxazol-3-yl)benzenesulfonamide 2,2,2-trifluoroacetate]	0.187 µM	0.081 µM	30 µM	23.1 µM	–
Cc1c(NCc2c(F)cccc2CN2CCC2)cc(F)c(S(=O)(=O)Nc2cscn2)c1F [Example 304, 4-((2-(azetidin-1-ylmethyl)-6-fluorobenzyl)amino)-2,6-difluoro-3-methyl-N-(thiazol-4-yl)benzenesulfonamide 2,2,2-trifluoroacetate]	0.008 µM	0.002 µM	5.3 µM	21.2 µM	–
Cc1c(NCc2ccccc2CN2CCC2)cc(F)c(S(=O)(=O)Nc2ncns2)c1F [Example 330, 4-((2-(azetidin-1-ylmethyl)benzyl)amino)-2,6-difluoro-3-methyl-N-(1,2,4-thiadiazol-5-yl)benzenesulfonamide]	0.001 µM	0.001 µM	2 µM	30 µM	–
O=S(=O)(Nc1cscn1)c1cc(Cl)c(NCc2c(F)ccc3cn[nH]c23)cc1F [Example 334, 5-chloro-2-fluoro-4-(((6-fluoro-1H-indazol-7-yl)methyl)amino)-N-(thiazol-4-yl)benzenesulfonamide formate]	0.029 µM	0.002 µM	4.65 µM	30 µM	–
O=S(=O)(Nc1ccon1)c1cc(Cl)c(NCc2c(F)cccc2CN2CCC2)cc1F [Example 301, 4-((2-(azetidin-1-ylmethyl)-6-fluorobenzyl)amino)-5-chloro-2-fluoro-N-(isoxazol-3-yl)benzenesulfonamide formate]	0.493 µM	–	30 µM	30 µM	–
O=S(=O)(Nc1cscn1)c1cc(Cl)c(NC2(c3ccc(F)cc3F)CC2)cc1F [Example 224, 5-chloro-4-((1-(2,4-difluorophenyl)cyclopropyl)amino)-2-fluoro-N-(thiazol-4-yl)benzenesulfonamide]	5.07 µM	–	7.76 µM	30 µM	–
C[C@H](Nc1cc(F)c(S(=O)(=O)Nc2cscn2)cc1Cl)c1cc(CC(F)F)ccc1F [Example 227, (S)-5-chloro-4-((1-(5-(2,2-difluoroethyl)-2-fluorophenyl)ethyl)amino)-2-fluoro-N-(thiazol-4-yl)benzenesulfonamide]	1.25 µM	–	8.78 µM	8.6 µM	–
O=S(=O)(Nc1cscn1)c1cc(Cl)c(N[C@H]2C[C@H](N3CCC3)c3ccccc32)cc1F [Example 264, 4-(((1S,3S)-3-(azetidin-1-yl)-2,3-dihydro-1H-inden-1-yl)amino)-5-chloro-2-fluoro-N-(thiazol-4-yl)benzenesulfonamide formate]	30 µM	–	30 µM	30 µM	–
CC1CN(Cc2cccc(F)c2CNc2cc(F)c(S(=O)(=O)Nc3cscn3)c(F)c2)C1 [Example 164, 2,6-difluoro-4-((2-fluoro-6-((3-methylazetidin-1-yl)methyl)benzyl)amino)-N-(thiazol-4-yl)benzenesulfonamide formate]	0.084 µM	–	22.8 µM	20.3 µM	–
C[C@H](Nc1cc(F)c(S(=O)(=O)Nc2nccs2)cc1Cl)c1cc(Cl)cc(Cl)c1 [Example 51, (S)-5-chloro-4-((1-(3,5-dichlorophenyl)ethyl)amino)-2-fluoro-N-(thiazol-2-yl)benzenesulfonamide]	10.8 µM	–	4.27 µM	20.6 µM	–
O=S(=O)(Nc1cscn1)c1cc(Cl)c(NCc2cc(CCN3CCC3)ccc2F)cc1F [Example 262, 4-((5-(2-(azetidin-1-yl)ethyl)-2-fluorobenzyl)amino)-5-chloro-2-fluoro-N-(thiazol-4-yl)benzenesulfonamide formate]	1.42 µM	–	8.29 µM	7.32 µM	–
CN(C)Cc1cccc(F)c1CNc1cc(F)c(S(=O)(=O)Nc2cscn2)cc1Cl [Example 249, 5-chloro-4-((2-((dimethylamino)methyl)-6-fluorobenzyl)amino)-2-fluoro-N-(thiazol-4-yl)benzenesulfonamide 2,2,2-trifluoroacetate]	0.163 µM	–	30 µM	30 µM	–
Cc1cccc(CN2CCC2)c1CNc1cc(F)c(S(=O)(=O)Nc2cscn2)c(F)c1 [Example 285, 4-((2-(Azetidin-1-ylmethyl)-6-methylbenzyl)amino)-2,6-difluoro-N-(thiazol-4-yl)benzenesulfonamide formate]	0.625 µM	–	5.89 µM	26.6 µM	–
O=S(=O)(Nc1cscn1)c1cc(Cl)c(NCc2ccc(F)cc2CN2CCC2)cc1F [Example 132, 4-((2-(azetidin-1-ylmethyl)-4-fluorobenzyl)amino)-5-chloro-2-fluoro-N-(thiazol-4-yl)benzenesulfonamide]	5.11 µM	–	7.87 µM	24.7 µM	–
O=S(=O)(Nc1ccncn1)c1cc(Cl)c(NC2(c3cc(F)ccc3F)CC2)cc1F [Example 241, 5-chloro-4-((1-(2,5-difluorophenyl)cyclopropyl)amino)-2-fluoro-N-(pyrimidin-4-yl)benzenesulfonamide]	2.36 µM	–	26.8 µM	30 µM	–
O=S(=O)(Nc1cscn1)c1c(F)cc(NCc2cc(CN3CCC3)ccc2F)cc1F [Example 195, 4-((5-(azetidin-1-ylmethyl)-2-fluorobenzyl)amino)-2,6-difluoro-N-(thiazol-4-yl)benzenesulfonamide formate]	0.688 µM	–	27.2 µM	30 µM	–
O=S(=O)(Nc1cscn1)c1c(F)cc(NCc2c(F)cccc2CN2CCC3(CCC3)C2)cc1F [Example 159, 4-((2-((6-azaspiro[3.4]octan-6-yl)methyl)-6-fluorobenzyl)amino)-2,6-difluoro-N-(thiazol-4-yl)benzenesulfonamide formate]	0.153 µM	–	9.21 µM	–	11.8 µM
Cc1ccc(F)cc1CNc1cc(F)c(S(=O)(=O)Nc2cscn2)cc1Cl [Example 147, 5-chloro-2-fluoro-4-((5-fluoro-2-methylbenzyl)amino)-N-(thiazol-4-yl)benzenesulfonamide]	3.31 µM	–	3.43 µM	2.72 µM	–
O=S(=O)(Nc1cscn1)c1cc(Cl)c(NCc2c(F)cccc2CN2CCOCC2)cc1F [Example 250, 5-chloro-2-fluoro-4-((2-fluoro-6-(morpholinomethyl)benzyl)amino)-N-(thiazol-4-yl)benzenesulfonamide]	9.06 µM	–	23.6 µM	30 µM	–
CCOC1(C)CN(Cc2cccc(F)c2CNc2cc(F)c(S(=O)(=O)Nc3cscn3)c(F)c2)C1 [Example 152, 4-((2-((3-ethoxy-3-methylazetidin-1-yl)methyl)-6-fluorobenzyl)amino)-2,6-difluoro-N-(thiazol-4-yl)benzenesulfonamide formate]	0.16 µM	–	10.3 µM	19 µM	–
CCC(Nc1cc(F)c(S(=O)(=O)Nc2nccs2)cc1Cl)c1ccc2c(c1)CCCC2 (centres unmarked) [Example 55, 5-chloro-2-fluoro-4-((1-(5,6,7,8-tetrahydronaphthalen-2-yl)propyl)amino)-N-(thiazol-2-yl)benzenesulfonamide]	20.7 µM	–	16.1 µM	21.3 µM	–
